Test results published in patent US9012439B2, “Use of electrophilic compounds for inducing platelet production or maintaining platelet function” (University of Rochester, priority 2007, dated 2015).

Test system: primary mouse megakaryocytes
Experiment: DNA content analysis of primary mouse megakaryocytes
Type: cell-based
Procedure: Bone marrow was isolated from the femora of male C57BL/6 mice (Jackson Laboratories, Bar Harbor, Me.) and plated at a concentration of 1×10^6 cells per well in 12-well plates in IMDM (Iscove's Modified Dulbecco's Media, Invitrogen) with 20% BIT 9500 (BSA, insulin, transferrin) and supplemented with 100 ng/mL of rhTPO. Cells were cultured for 5 days, following which 15d-PGJ2 (10 μM) was added to the culture medium for 24 h. On the sixth day, cells were examined by phase-contrast microscopy using an inverted microscope (Olympus IX81) and images were captured using SPOT RT software (New Hyde Park, N.Y.). Megakaryocytes were identified by preincubating with anti-mouse CD16/32 (FcγR-blocking antibody) and then incubating with PE-conjugated hamster anti-mouse CD41 antibody.
Cells were fixed in 95% ethanol, treated with RNAse (Sigma) followed by 20 μg/mL propidium iodide (Sigma) to stain DNA, and analyzed by flow cytometry.

CCCCCC=CC=C1C(=O)C=C[C@@H]1CC=CCCCC(=O)O [15d-PGJ2, 15-deoxy-Δ^12,14 prostaglandin J2]
primary mouse megakaryocyte ploidy (by 24 h): enhanced primary mouse megakaryocyte ploidy
DNA content (primary mouse megakaryocytes, 10 μM, 24 h): increased DNA content
